Structures are written as SMILES.

One assay has as its system MDA-MB-231 cells. Briefly: In vitro invasion assay, Matrigel-coated Boyden chambers, MDA-MB-231. Format: cell-based, human. The settings on record: 24 h preincubation, 3 experiments, read-out: Mean IC50 inhibition of invasion through Matrigel matrix. On the procedure: Tumor invasion of the basement membrane is a crucial step in the complex multistage process that leads to metastatic spread. Tumor cells cross the basement membrane as they initially invade the lymphatic or vascular beds during dissemination and as they penetrate their target tissues. […]
Invasion of cancer cells treated with [VO(SO4)(Me2-Phen)2] was assayed using Matrigel-coated Costar 24-well transwell cell culture chambers (“Boyden chambers”) with 8.0-μm-pore polycarbonate filter inserts as described previously (Narla et al., Clin Cancer Res, 4: 2463-2471, 1998; Ghosh et al., Anticancer Drug Des, 14: 403-410, 1999; Albini et al., J Cell Biol, 105: 1867-1872, 1987). […] The cells were trypsinized, washed twice with serum-free medium containing BSA, counted and resuspended in a serum-free medium at 1×10^5 cells/ml. […] The invasive cells that migrated to the lower side of the filter were fixed, stained with Hema-3 solution and counted under a light microscope. Five to 10 random fields per filter were counted to determine the invasive fraction. The invasive fractions of cells treated with [VO(SO4)(Me2-Phen)2] were compared to those of DMSO-treated control cells and the percent inhibition of invasiveness was determined. […]

For assay [1], the system named is MDA-MB-231 breast cancer xenografts. The experiment in a line: SCID mouse xenograft model of human breast cancer. It counts as in vivo, SCID mice. On the procedure:
FIGS. 1A-1B illustrate the in vivo antitumor activity of the vanadium compound, [VO(SO4)(Me2-Phen)2] against human glioblastoma and breast cancer in SCID mice. The effects of daily treatment with [VO(SO4)(Me2-Phen)2] (10 mg/kg/day) or 5% DMSO in PBS (given five days per week for four weeks beginning the day after inoculation) on tumor growth and progression of glioblastoma (FIG. 1A) and breast cancer (FIG. 1B) are illustrated. Comparisons between groups were done using the log-rank test.
The animal protocols used in this study were approved by the Parker Hughes Institute Institutional Animal Care and Use Committee (IACUC). […]
The right and left hind legs of the SCID mice were inoculated subcutaneously with 1×10^6 U87 human glioblastoma and 1×10^6 MDA-MB-231 beast cancer cells, respectively, in 0.1 mL PBS. […] Mice were monitored daily for health status as well as tumor growth and were sacrificed if they became moribund, developed tumors which impeded their ability to attain food or water, or at the ed of the six-week observation period. Tumors were measured using Vernier calipers three times per week. Tumor volumes were calculated according to the following formula, as described previously (Narla et al., Clin Cancer Res., 4: 1405-14, 1998; Friedman et al., Cancer Res., 55: 2853-2857, 1995): Tumor volume=(Width)^2(Length)/2. […]
(A xenograft is tissue or cells of one species grown in another, often human tumour cells in immunodeficient mice.)

As a reminder, the IC50 is the point on the concentration scale where inhibition reaches its midpoint. For the molecule `Cc1ccnc2c1ccc1c(C)ccnc12.Cc1ccnc2c1ccc1c(C)ccnc12.O=S(=O)([O-])[O-].[O]=[V+2]` [[VO(SO4)(Me2-Phen)2], bis(4,7-dimethyl-1,10-phenanthroline) sulfatooxovanadium (IV)], the IC50 in the assay with MDA-MB-231 cells was found to be 600 ± 300 nM. Moreover, the “average size of tumors” value in assay [1] (MDA-MB-231, 1.5 months after inoculation, 10 mg/kg i.p., vehicle control 641±98.7, P=0.004) worked out at 286.9±41.5 mm^3. Further, in assay [1] (follows the MDA-MB-231 sentence, 10 mg/kg/dose i.p., five days per week for four weeks), the “mice remaining alive and free of detectable tumors for >19 days” value is on record as 50%.

The values are drawn from US6878388B1, “Vanadium compounds for treating proliferative cell disorders” (Parker Hughes Institute, priority 2000, dated 2005).
